Test results: US20240327462A1, “SHORT PEPTIDES, PHARMACEUTICAL COMPOSITIONS COMPRISING THE SAME, AND USES THEREOF IN TREATING NEUROLOGICAL DISEASES” (FU JEN CATHOLIC UNIVERSITY, priority 2023, published 2024)

What was measured:
[1] = tested on: NSC34 cells; assay: Neurite outgrowth of NSC34 cells cultured in Sol8-NogoA conditioned medium; assay type: cell-based, mouse; details: Sol8-NogoA CM with peptide 66 ng/ml, 48 hours; PBS in Sol8-NogoA CM 53.6 μm, PBS in Sol8 CM 99.4 μm
Protocol: . After 24-48 hours, the supernatant containing viral particles was collected and centrifuged at a speed of 1,250 rpm, followed by adding to Sol8 cells (ATCC, CRL-2174) pretreated with 8 μg/ml POLYBRENE®. 24 hour later, the fresh DMEM medium containing 10% fetal bovine serum (FBS), 100 units/ml penicillin, 1% streptomycin and 4 ug/ml puromycin was added to the Sol8 cells so as to obtain NogoA-overexpressed Sol8 cells.
The wild-type Sol8 cells and NogoA-overexpressed Sol8 cells (Sol8-NogoA cells) were respectively cultured and differentiated in DMEM medium containing 10% FBS, 100 units/ml penicillin and 1% streptomycin. Two days later, 1 μg/μl of doxycycline was added to the medium so as to induce the expression of target genes. The culture medium was collected and the fresh medium containing doxycycline was added to the Sol8-NogoA cells every 24 hours. The collected culture medium was then centrifuged at a speed of 3,000 rpm for 5 minutes at room temperature, and the supernatant was harvested therefrom served as CM for the following assays.
(§1) NSC34 cells (mouse Neuroblastoma x Spinal Cord-34 cell line) (RRID:CVCL_D356) were cultured in DMEM medium containing 10% FBS, 100 units/ml penicillin and 1% streptomycin. To investigate the effect of the present peptides (including FD1, FD2, FD3 and FD4) on neurons, NSC34 cells were cultivated in differentiation medium (DMEM medium containing 2.5% FBS, 100 units/ml penicillin and 1% streptomycin) for 24 hours, and then continued cultivating in CM obtained from culturing Sol8-NogoA cells (Sol8-NogoA CM) with or without addition of the present peptide (i.e., FD1, FD2, FD3 or FD4) in an amount of 66 ng/ml. The CM with or without containing the present peptide was refreshed daily. Cells were fixed with paraformaldehyde (PFA) for 48 hours, followed by measuring the length of neurite outgrowth using software based the neurites shown on microscopic image. Each data was averaged from three independent experiments and the length presented in each time was averaged from more than 100 counting cells. The effect of the present peptide on improving neurite outgrowth was determined by comparing the neurite length of NSC34 cells treated with the present peptide in Sol8-NogoA CM with that of NSC34 cells treated with phosphate buffered saline (PBS; serving as a control group) in Sol8-NogoA CM.

[2] = tested on: phosphorylated cofilin (p-cofilin); assay: Western blot of phosphorylated cofilin (p-cofilin) in treated NSC34 cells; assay type: cell-based, mouse; details: NSC34 cells in NogoA-overexpressed Sol8 CM with peptide, compared to PBS control normalized as 1
Protocol: as §1
The total proteins extracted from treated NSC34 cells were analyzed by sodium dodecyl-sulfate polyacrylamide gel electrophoresis (SDS-PAGE) on a 12% polyacrylamide gel. After electrophoresis, western blotting was performed. The protein levels of phosphorylated cofilin (p-cofilin) and alpha-tubulin contained in NSC34 cells cultured in medium with addition of either PBS (served as control) or the present peptide (i.e., FD1, FD2, FD3 or FD4) were determined using antibodies specifically against p-cofilin and alpha-tubulin, respectively. The intensity shown on the blot was quantified by software. Each data was averaged from three independent experiments. The relative intensity among groups was based on the comparison with that of control group set as 1.

[3] = tested on: Tg(mnxl:GFP) zebrafish embryos; assay: Axonal branching of motor neurons in Tg(mnxl:GFP) zebrafish embryos; assay type: in vivo; details: microinjected into brain chamber at 20 hpf, examined at 30 hpf; compared to untreated and 16-a.a.-injected control groups
Protocol: The branched primary motor neurons (PMN) derived from caudal primary (CaP) motoneurons located at somites from 11th to 20th of Tg(mnxl:GFP) zebrafish embryos at 30 hours post fertilization (hpf) was examined. The untreated embryos served as control group, the embryos injected with an arbitrary non-functional 16 a.a. served as mock control group, while experimental groups were embryos injected with FD1, FD2, FD3 or FD4. […] Each data was averaged from three independent experiments.
The PBS and present peptides (i.e., FD1, FD2, FD3 and FD4) were respectively microinjected into the brain chamber of Tg (mnxl:GFP) embryos at 20 hpf. After 10 hours, the control embryos, mock control embryos and experimental embryos were monitored by anatomic microscope equipped with fluorescence system and digital camera.

[4] = tested on: ALS SOD1G93A mice; assay: Denervation of neuromuscular junction (NMJ) in ALS SOD1G93A mice; assay type: in vivo; details: 250 ug (about 10 mg/Kg) i.v. weekly from day 60; gastrocnemius muscle of 75-day-old mice; vs PBS-injected mouse
Protocol: (§2) Transgenic mice of the congenic strain ALS SOD1^G93A carrying human SOD1 with the pathogenic G93A mutation (a mouse model of ALS that developed stereotyped phenotypes resembling the symptoms in ALS patients) were purchased from The Jackson Laboratory (JAX). The present peptide (i.e., FD1, FD2, FD3 or FD4) was initiated to inject intravenously in an amount of 250 ug (about 10 mg/Kg) into 60-day-old ALS SOD1^G93A mice. Injection was performed weekly. Injection of PBS served as a control group. The treated mice were monitored daily and analyzed via video tracking software.
To study the denervation of NMJ, the gastrocnemius muscles were extracted from 75-day-old ALS SOD1^G93A mice received with either PBS (control) or the present peptide (FD1, FD2, FD3 or FD4) and analyzed by immunostaining. In brief, the gastrocnemius muscles fixed with paraformaldehyde (PFA) were mounted on glass slides and treated with 2% TRITON™ for one hour. After blocking with PBS containing 5% bovine serum albumin (BSA) for 2 hours, the antibody against either synaptic vesicle protein (synapsin) or alpha-Bungarotoxin (α-BTX) was added to the slides, followed by incubating at 4° C. for 16 hours. The slides were washed with PBS containing 2% TRITON™ for three times, and then Cy2-conjugated anti-rabbit antibody and ALEXA FUOR™ 647-conjugated anti-mouse antibody were respectively added to the slides, followed by incubating at 4° C. for 16 hours. The slides were washed with PBS containing 2% TRITON™ for three times. The axon terminal of motoneurons via synapsin labeled by green fluorescent signal, while detected the acetylcholine receptor on motor endplates via α-BTX labeled by red fluorescent signal. […]. The percentage of yellow signal (green signal overlapped with red signal) among total red signal shown on the 600× magnified image area (400×400 pixels) of muscle sample from PBS- and peptide-injected SOD1-G93A ALS mouse was calculated using software. Each experiment was calculated from 13-15 images.

[5] = tested on: ALS SOD1G93A mice; assay: Moving capability of ALS model mice (SOD1 G93A); assay type: in vivo, mouse; details: 250 ug (about 10 mg/Kg) i.v. weekly from day 60; measured at 124 days after birth; vs PBS-injected control ALS mice
Protocol: as §2
The moving capability of ALS model mice (SOD1 G93A) injected with PBS or the present peptide (i.e., FD1, FD2, FD3 or FD4) was determined via measuring the moving trajectory of each treated mouse at 124 days after birth.

[6] = tested on: ALS SOD1G93A mice; assay: Survival of ALS SOD1G93A mice; assay type: in vivo, mouse; details: 250 ug (about 10 mg/Kg) i.v. weekly from day 60; for cumulated survival rate compared to PBS-injected control mice: 5 mice per group vs 7 PBS controls; for average survival days: 5 mice per group, PBS control 130.0
Protocol: as §2
The initial total number of ALS mice in each group (7 and 5 samples for control and FD-treated groups, respectively) was set as a 100% survival rate. During experimental period, once the ALS mouse was dead, the number and its survival days were recorded, and the cumulative survival rate was counted. When all ALS mice within the experimental group were dead, the cumulative survival rate was considered as 0%. In case that either the weight loss of a mouse was greater than 20% of original or a mouse that was not capable to eat and drink normally, euthanasia was performed and considered it as a non-survival sample. The survival days for each group were averaged from seven samples for PBS-injected control group and five samples for FD-injected experimental groups.

Sequence	neurite length of NSC34 cells [1]	p-cofilin protein level [2]	percentage of zebrafish embryos exhibiting branched motor neurons [3]	percentage of co-localized synapsin-1 and α-BTX (NMJ integrity) [4]	moving distance [5]	cumulated survival rate compared to PBS-injected control mice [6]	average survival days [6]
WEAFARGTKALMDEVV [FD1, short peptide derived from human PGK1, 16 a.a]	89.2 μm	significantly reduced	significantly increased	significantly higher	significantly improved	longer survival time	140.0 days
WEAFARGTKALMRQVV [FD4, mutant of FD1, D13 substituted with R and E14 with Q]	95.8 μm	significantly reduced	significantly increased	significantly higher	significantly improved	longer survival time	139.0 days
WEAFARGTRALMDEVV [FD3, mutant of FD1, lysine at position 9 substituted with arginine]	88.2 μm	significantly reduced	significantly increased	significantly higher	significantly improved	not shown difference	130.8 days
WEAFARGTKPLMDEVV [FD2, mutant of FD1, alanine at position 10 substituted with proline]	66.6 μm	significantly reduced	significantly increased	significantly higher	significantly improved	longer survival time	147.0 days
